Broadly, the MIC is the lowest concentration that inhibits growth of the organism.

This test deals with Staphylococcus aureus (MSSA). The following applies: 24 h. Here is the method:
(“Approved Standard M7-A3”).
The antimicrobial lipopeptide derivatives described herein were tested for antimicrobial activity against Gram-positive bacteria as follows. The minimum inhibitory concentrations (MIC) of the antimicrobial lipopeptide derivatives of the invention were determined using NCCLS guidelines M7-A6 (2003) with a slight modification in that doubling serial dilutions were used to dilute the test compounds. The broth phase microdilution method was used. Isolated colonies of Staphylococcus aureus (MSSA) from an 18-24 hour blood agar plate cultures were used to inoculate cation adjusted Mueller-Hinton broth (CAMHB) supplemented with 0.625 mM calcium. […] A negative control containing media alone and a positive growth control containing bacteria with media alone were also included. MICs were determined after incubating the plates at about 37° C. for 24 hours. […] In Tables 1 to 16, R is the core cyclic peptide of amphomycin or aspartocin, which can be in the form of a β-isomer, an anhydro, a dianhydro, or any combination thereof. […] Furthermore, a person of skill in the art will appreciate that all the pounds, or groups of compounds, derived from the various combinations of and substituents shown in Tables 1 to 16, are disclosed by the present the same extent as if each compound or group of compounds was set forth individually.
As to `CCCCCCCCCCCCCCC(=O)NC(CC(=O)O)C(=O)NC1C(=O)N2CCCCC2C(=O)NC(C(C)C(=O)O)C(=O)NC(CC(=O)O)C(=O)NCC(=O)NC(CC(=O)O)C(=O)NCC(=O)NC(C(C)NC(=O)[C@@H](N)CC2CCCCC2)C(=O)NC(C(C)C)C(=O)N2CCCC2C(=O)NC1C` (stereo partly drawn) [Compound 31, C15-Amphomycin-9-(β-Cha)], the MIC was found to be 16 µg/mL.

As for `CCCCCCCCCCCCCCC(=O)NC(CC(=O)O)C(=O)NC1C(=O)N2CCCCC2C(=O)NC(C(C)C(=O)O)C(=O)NC(CC(=O)O)C(=O)NCC(=O)NC(CC(=O)O)C(=O)NCC(=O)NC(C(C)NC(=O)[C@@H](N)CCc2ccccc2)C(=O)NC(C(C)C)C(=O)N2CCCC2C(=O)NC1C` (stereo partly shown) [Compound 32, C15-Amphomycin-9-hPhe], the MIC came out at 8 µg/mL.

On to `CCCCCCCCCCCCCCC(=O)NC(CC(=O)O)C(=O)NC1C(=O)N2CCCCC2C(=O)NC(C(C)C(=O)O)C(=O)NC(CC(=O)O)C(=O)NCC(=O)NC(CC(=O)O)C(=O)NCC(=O)NC(C(C)NC(=O)CNC(=O)CNC(=O)CN)C(=O)NC(C(C)C)C(=O)N2CCCC2C(=O)NC1C` (stereo not drawn) [Compound 33, C15-Amphomycin-9-Gly-Gly-Gly], for which the MIC lay in the range of 0.5 to 1 µg/mL.

With `CCCCCCCCCCCCCCC(=O)NC(CC(=O)O)C(=O)NC1C(=O)N2CCCCC2C(=O)NC(C(C)C(=O)O)C(=O)NC(CC(=O)O)C(=O)NCC(=O)NC(CC(=O)O)C(=O)NCC(=O)NC(C(C)NC(=O)CCCCCCCCCCN)C(=O)NC(C(C)C)C(=O)N2CCCC2C(=O)NC1C` (stereo not shown) [Compound 34, C15-Amphomycin-9-C(═O)—(CH2)10—NH2], the MIC is 32 to 64 µg/mL.

As to `CCCCCCCCCCCCCCC(=O)NC(CC(=O)O)C(=O)NC1C(=O)N2CCCCC2C(=O)NC(C(C)C(=O)O)C(=O)NC(CC(=O)O)C(=O)NCC(=O)NC(CC(=O)O)C(=O)NCC(=O)NC(C(C)NC(=O)[C@@H](N)CC#N)C(=O)NC(C(C)C)C(=O)N2CCCC2C(=O)NC1C` (stereo partly drawn) [Compound 35, C15-Amphomycin-9-(β-Cyano-Ala)], the MIC lay within 8 to 16 µg/mL.

`CCCCCCCCCCCCCCC(=O)NC(CC(=O)O)C(=O)NC1C(=O)N2CCCCC2C(=O)NC(C(C)C(=O)O)C(=O)NC(CC(=O)O)C(=O)NCC(=O)NC(CC(=O)O)C(=O)NCC(=O)NC(C(C)NC(=O)[C@@H](N)[C@@H](C)CC)C(=O)NC(C(C)C)C(=O)N2CCCC2C(=O)NC1C` (stereo partly shown) [Compound 36, C15-Amphomycin-9-Ile]: the MIC lay in the range of 8 to 16 µg/mL.

Turning to `CCCCCCCCCCCCCCC(=O)NC(CC(=O)O)C(=O)NC1C(=O)N2CCCCC2C(=O)NC(C(C)C(=O)O)C(=O)NC(CC(=O)O)C(=O)NCC(=O)NC(CC(=O)O)C(=O)NCC(=O)NC(C(C)NC(=O)CNC(=O)[C@@H](N)C(C)C)C(=O)NC(C(C)C)C(=O)N2CCCC2C(=O)NC1C` (stereo partly shown) [Compound 37, C15-Amphomycin-9-Gly-Val], the MIC was in the range of 2 to 4 µg/mL.

With `CCCCCCCCCCCCCCC(=O)NC(CC(=O)O)C(=O)NC1C(=O)N2CCCCC2C(=O)NC(C(C)C(=O)O)C(=O)NC(CC(=O)O)C(=O)NCC(=O)NC(CC(=O)O)C(=O)NCC(=O)NC(C(C)NC(=O)[C@@H](N)CC(N)=O)C(=O)NC(C(C)C)C(=O)N2CCCC2C(=O)NC1C` (stereo partly shown) [Compound 38, C15-Amphomycin-9-Asn], the MIC worked out at 2 µg/mL.

For the compound `CCCCCCCCCCCCCCC(=O)NC(CC(=O)O)C(=O)NC1C(=O)N2CCCCC2C(=O)NC(C(C)C(=O)O)C(=O)NC(CC(=O)O)C(=O)NCC(=O)NC(CC(=O)O)C(=O)NCC(=O)NC(C(C)NC(=O)[C@@H](N)Cc2ccc(O)cc2)C(=O)NC(C(C)C)C(=O)N2CCCC2C(=O)NC1C` (stereo partly shown) [Compound 39, C15-Amphomycin-9-Tyr], the MIC is 32 to 64 µg/mL.

On to `CCCCCCCCCCCCCCC(=O)NC(CC(=O)O)C(=O)NC1C(=O)N2CCCCC2C(=O)NC(C(C)C(=O)O)C(=O)NC(CC(=O)O)C(=O)NCC(=O)NC(CC(=O)O)C(=O)NCC(=O)NC(C(C)NC(=O)[C@@H](N)Cc2c[nH]c3ccccc23)C(=O)NC(C(C)C)C(=O)N2CCCC2C(=O)NC1C` (stereo partly shown) [Compound 40, C15-Amphomycin-9-Trp], for which the MIC lay within 32 to 64 µg/mL.

The values are drawn from patent publication US7868135B2, “Compositions of lipopeptide antibiotic derivatives and methods of use thereof” (priority 2003, dated 2011).
